Experiments:
Assay type in all cases: in vivo, human
[1] = system: males with ASD; assay: Aberrant Behavior Checklist (ABC), parent questionnaire, SAT-1 trial; details: ABC Stereotypy
Protocol: (§1) Two observational examinations were performed by a clinician at 3 time points: baseline (56±8 days; mean±SEM; before the infusion), 2-days post-infusion, and 6-weeks post-infusion. The two examiner-based metrics were the Autism Diagnostic Observation Schedule, 2nd edition (ADOS-2) with video and audio files recorded on 3 cameras, and the Expressive One Word Picture Vocabulary Testing (EOWPVT). Both of these observational metrics were administered by a trained and certified examiner using approved test materials. Three standardized questionnaires were completed by parents at 3 time points: baseline, 7-days post-infusion, and 6-weeks post-infusion. The three standardized questionnaires completed by parents were the 58-question Aberrant Behavior Checklist (ABC), the 75-item Autism Treatment Evaluation Checklist (ATEC), and the 33-item repetitive behavior questionnaire (RBQ). Parents were asked to complete these three instruments with reference to how their child behaved in the previous 7 days. At the end of the six weeks, we included a 24-question Clinical Global Impression (CGI) questionnaire (FIG. 16). In addition, parents were asked to list the 3 top behaviors or symptoms that they observed to be most changed over the previous 6-weeks. To minimize the misinterpretation of natural day-to-day variations in symptoms, parents were asked to mark a symptom as changed in the 6-week CGI only if it had lasted for at least 1 week. […]
(§2) Behavioral and neurological effects of treatment were assessed primarily by the examiner-based ADOS-2 protocol scores and standardized vocabulary testing (Expressive One Word Picture Vocabulary Test, EOWPVT), with secondary evaluation via parent-based assessments (Aberrant Behavior Checklist (ABC) scores, Autism Treatment Evaluation Checklist (ATEC) scores, Clinical Global Impression of Improvement (CGI) scores, and Repetitive Behavior Questionnaire (RBQ) scores). […] Examiner-based outcomes (ADOS and EOWPVT) were assessed at 2-days and 6-weeks after the infusion. Parent-based outcomes (ABC, ATEC, CGI, and RBQ) were assessed at 7-days and 6-weeks after the infusion. […]
Each child was used as their own control to examine before and after treatment effects from Example 1 in a paired t-test design for the analysis of the ADOS, EOWPVT, ABC, ATEC, RBQ (FIGS. 4-11 show individual analyses), and blood and urine safety data (FIGS. 2 and 3 show individual analyses). […] Categorical data, such as the presence or absence of adverse events or historical symptoms was analyzed by Fisher's exact test. […] Cohen's d—calculated as the mean difference of the paired, within-subject scores before and after treatment, divided by the standard deviation of the differences—was used as an estimate of effect size.

[2] = system: males with ASD; assay: Clinical Global Impression (CGI) 24-question instrument, SAT-1 trial; details: for Difference from baseline (mean ± sd) / d (Cohen's d): 45 days after treatment
Protocol: Two observational examinations were performed by a clinician at 3 time points: baseline (56±8 days; mean±SEM; before the infusion), 2-days post-infusion, and 6-weeks post-infusion. The two examiner-based metrics were the Autism Diagnostic Observation Schedule, 2nd edition (ADOS-2) with video and audio files recorded on 3 cameras, and the Expressive One Word Picture Vocabulary Testing (EOWPVT). Both of these observational metrics were administered by a trained and certified examiner using approved test materials. Three standardized questionnaires were completed by parents at 3 time points: baseline, 7-days post-infusion, and 6-weeks post-infusion. The three standardized questionnaires completed by parents were the 58-question Aberrant Behavior Checklist (ABC), the 75-item Autism Treatment Evaluation Checklist (ATEC), and the 33-item repetitive behavior questionnaire (RBQ). Parents were asked to complete these three instruments with reference to how their child behaved in the previous 7 days. At the end of the six weeks, we included a 24-question Clinical Global Impression (CGI) questionnaire (FIG. 16). In addition, parents were asked to list the 3 top behaviors or symptoms that they observed to be most changed over the previous 6-weeks. To minimize the misinterpretation of natural day-to-day variations in symptoms, parents were asked to mark a symptom as changed in the 6-week CGI only if it had lasted for at least 1 week.
We developed a 24-question Clinical Global Impression (CGI) instrument designed to assess the core symptoms of autism spectrum disorders and some of the most common comorbid features (FIG. 16). The CGI instrument scoring system was the traditional 7-point, CGI-Improvement scale. See, for e.g. Busner and Targum. Psychiatry. 2007(4):28-37. In this scale, the historian gives a score of 0 if the symptom “was never a problem”, a 1 for “very much improved”, a 4 for “no change”, and a 7 for “very much worse”. In addition to the 24 structured questions, we asked the parents to write in the top 3 symptoms or behaviors that were most changed over the 6 weeks since the suramin infusion. This hybrid design of structured and open-ended responses permitted us to capture a large number of clinical outcomes associated with single dose suramin treatment.
For the test dose, 50 mg of suramin hexasodium (Bayer Pharmaceuticals, Inc.) in 5 mL of saline (experimental arm, 5 patients), or 5 mL of saline only (control arm, 5 patients) were given by slow intravenous (IV) push over 3 minutes, followed by a 10 mL flush of saline. One hour after the test dose, vital signs were repeated and a single infusion of either suramin (20 mg/kg, minus the 50 mg test dose, in 50 mL, up to a maximum of 1 gram) or saline (50 mL IV) was given over 30 minutes, followed by a 10 mL flush of saline.
Behavioral and neurological effects of treatment were assessed primarily by the examiner-based ADOS-2 protocol scores and standardized vocabulary testing (Expressive One Word Picture Vocabulary Test, EOWPVT), with secondary evaluation via parent-based assessments (Aberrant Behavior Checklist (ABC) scores, Autism Treatment Evaluation Checklist (ATEC) scores, Clinical Global Impression of Improvement (CGI) scores, and Repetitive Behavior Questionnaire (RBQ) scores). See General Methods for information related to behavioral test administration. Prior to the study, diagnosis of each of the enrolled participants was confirmed by ADOS-2 comparison scores of ≥7, and non-verbal IQ was tested by Leiter-3 examination. Examiner-based outcomes (ADOS and EOWPVT) were assessed at 2-days and 6-weeks after the infusion. Parent-based outcomes (ABC, ATEC, CGI, and RBQ) were assessed at 7-days and 6-weeks after the infusion. To minimize the effects of natural behavioral variability, the parents were instructed to mark a behavior as changed only if it was persistently changed for at least 1 week. […]

[3] = system: males with ASD; assay: Repetitive Behavior Questionnaire (RBQ), SAT-1 trial
Protocol: as §1, with “days.” for “days. At the end of the six weeks, we included a 24-question Clinical Global Impression (CGI) questionnaire (FIG. 16). In addition, parents were asked to list the 3 top behaviors or symptoms that they observed to be most changed over the previous 6-weeks. To minimize the misinterpretation of natural day-to-day variations in symptoms, parents were asked to mark a symptom as changed in the 6-week CGI only if it had lasted for at least 1 week.”
as §2
Each child was used as their own control to examine before and after treatment effects from Example 1 in a paired t-test design for the analysis of the ADOS, EOWPVT, ABC, ATEC, RBQ (FIGS. 4-11 show individual analyses), and blood and urine safety data (FIGS. 2 and 3 show individual analyses). […] Categorical data, such as the presence or absence of adverse events or historical symptoms was analyzed by Fisher's exact test. […]

[4] = RBQ Total, 45 days after treatment

Cc1ccc(C(=O)Nc2ccc(S(=O)(=O)O)c3cc(S(=O)(=O)O)cc(S(=O)(=O)O)c23)cc1NC(=O)c1cccc(NC(=O)Nc2cccc(C(=O)Nc3cc(C(=O)Nc4ccc(S(=O)(=O)O)c5cc(S(=O)(=O)O)cc(S(=O)(=O)O)c45)ccc3C)c2)c1 [Suramin, suramin]
Difference from baseline (mean ± sd) ([1]; 7 days after treatment): −3.6 ± 2.1
d (Cohen's d) ([1]; 7 days after treatment): 1.7
Difference from baseline (mean ± sd) ([1]; 45 days after treatment): −4.0 ± 2.3
d (Cohen's d) ([1]; 45 days after treatment): 1.7
symptoms covered in the CGI that were significant ([2]; 6-weeks, 24 symptoms (FIG. 10C)): Four of 24
Difference from baseline (mean ± sd) ([2]; CGI E. Language (expressive language)): −2.0 ± 1.04
d (Cohen's d) ([2]; CGI E. Language): 1.9
Difference from baseline (mean ± sd) ([2]; CGI Overall ASD symptoms): −1.8 ± 1.04
d (Cohen's d) ([2]; CGI Overall ASD symptoms): 1.7
Difference from baseline (mean ± sd) ([2]; CGI Social Inter. (social interaction)): −2.0 ± 1.04
d (Cohen's d) ([2]; CGI Social Inter.): 1.9
Repetitive Behavior Questionnaire (RBQ) scores ([3]; 6-weeks): did not capture a change
Difference from baseline (mean ± sd) [3, 4]: −3.2 ± 5.8
d (Cohen's d) [3, 4]: 0.55

Reference: patent US20190358181A1, “METHODS FOR AUTISM SPECTRUM DISORDER PHARMACOTHERAPY” (priority 2017, published 2019)
